The text below walks through data of patent US20240307409A1, “ARGININE METHYLTRANSFERASE INHIBITOR AND USE THEREOF” (Cytosinlab Therapeutics Co., Ltd., priority 2021, published 2024).

Structures are written as SMILES. Some results are limits rather than exact numbers.

One assay has as its target T1, PRMT7 (Homo sapiens, UniProt Q9NVM4).
T1 sequence (Q9NVM4 1-692): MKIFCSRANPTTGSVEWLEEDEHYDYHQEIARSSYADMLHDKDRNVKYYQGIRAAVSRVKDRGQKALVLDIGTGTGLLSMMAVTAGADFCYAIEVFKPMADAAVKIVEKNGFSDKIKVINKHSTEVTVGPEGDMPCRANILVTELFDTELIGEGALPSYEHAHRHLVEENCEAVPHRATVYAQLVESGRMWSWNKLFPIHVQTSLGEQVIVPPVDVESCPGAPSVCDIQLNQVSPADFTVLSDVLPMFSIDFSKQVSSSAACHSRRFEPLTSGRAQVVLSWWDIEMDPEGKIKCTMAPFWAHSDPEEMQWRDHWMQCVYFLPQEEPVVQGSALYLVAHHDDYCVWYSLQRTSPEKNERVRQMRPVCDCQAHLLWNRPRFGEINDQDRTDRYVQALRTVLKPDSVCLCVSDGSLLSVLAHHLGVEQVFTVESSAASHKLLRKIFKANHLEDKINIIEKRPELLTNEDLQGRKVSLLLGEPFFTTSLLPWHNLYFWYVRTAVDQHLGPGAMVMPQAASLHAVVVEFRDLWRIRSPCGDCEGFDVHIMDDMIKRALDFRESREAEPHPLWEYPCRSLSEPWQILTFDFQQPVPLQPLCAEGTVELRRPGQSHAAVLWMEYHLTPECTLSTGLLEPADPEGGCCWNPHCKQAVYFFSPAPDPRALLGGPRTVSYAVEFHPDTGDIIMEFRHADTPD
Description: PRMT panel selectivity test, PRMT7. Type of assay: biochemical. The protocol:
[The procedure below names another target; the source says it served here with some conditions changed.] PRMT1 enzyme activity test were performed in a buffer prepared on the same day 5 consisting of 10 mMTirs-HCl (pH=8.0), 0.01% Tween-20 and 1 mM DTT. The compounds were prepared to the highest inhibitor concentration ultimately required in the 100× reaction with 100% DMSO and then transferred to one well of a 384-well Echo plate (Echo-eligible 384-well polypropylene microplates 2.0, transparent, flat-bottomed) and sequentially diluted in the next well with a 3-fold dilution of 100% DMSO, and so on, with a total of 10 concentrations based on Precision. 100% DMSO was added to two empty wells to serve as control well without compound and control well without enzyme in the same 384-well Echo plate. 250 nL of compound was transferred from each well of the 384-well Echo plate to a 384-well assay plate (384-well polypropylene storage microplate) via the Echo 550 liquid processor. For wells with compounds and control well without compound, a mixture (15 uL) containing PRMT1 enzyme was added to the 384-well assay plate. For control wells without enzyme, the mixture containing the assay buffer (15 uL) was added instead. The compounds were allowed to incubate with PRMT1 for 15 minutes at room temperature, and then a mixture containing ^3H-SAM and peptide (10 uL) was added to start the reaction (final volume=25 uL). […] After 120 min of incubation, the assay was terminated by the addition of non-radiolabeled SAM (5 uL) to a final concentration of 125 uM, which diluted 3H-SAM to a level at which its incorporation into the peptide substrate was no longer detected. […] Plates were read on a microplate counter (MicroBeta2) to measure the amount of ^3H-labeled peptide bound to the surface of the detection plate, measured in counts per minute (cpm).
The raw data were copied from the Reader and the inhibition values were calculated in Excel by Equation (1), Equation (1): Inh %=(CPMmax−CPMcmpd)/(CPMmax−CPMmin)*100, wherein the Max signal was obtained from the enzyme-substrate interaction and the Min signal was obtained from the substrate. […]

Another assay has as its system Toledo cells. Description: Toledo cell proliferation inhibition assay. Type of assay: cell-based. As to conditions: Homo sapiens, Toledo, 144 h; six-day assay, CellTiter-Glo. The procedure, abridged: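 Toledo cells seeded at 2000 cells/well in RPMI 1640 + 10% FBS and incubated with compound for six days at 37° C, 5% CO2. Viability was then read by CellTiter-Glo luminescence after 30 min orbital mixing.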
Background: In ATP-based viability assays light output follows the ATP content of the culture.

Take `CNCCN(C)Cc1ccccc1C1CCN(c2ccccc2)CC1` [P023]: the IC50 at PRMT7 was not below 10 µM; with Toledo cells it was less than 1 µM.

As to `CNCCN(C)Cc1ncccc1N1CCc2ccccc2CC1` [P118], the IC50 was not below 10 µM at PRMT7 and less than 1 µM in the assay with Toledo cells.

For the molecule `CCOCC1(COCC)CCC(c2cccnc2CN(C)CCNC)CC1` [P207], the IC50 is not below 10 µM against PRMT7 and less than 1 µM with Toledo cells.

Usually IC50 stands for the concentration needed to halve the response being measured. Read a low IC50 as greater potency.
